A value given as a limit tells only on which side of the number the result lay.

Assay [1] concerns J82 bladder carcinoma cells. Kind of assay: Antiproliferative assay (MTT reduction), J82 bladder carcinoma cells. Format: cell-based, human. Conditions: Homo sapiens, 72 h; J82 bladder carcinoma; 3 days treatment, MTT reduction; mean ± SD; >100 µM considered inactive. On the procedure:
(§1) All human cell lines used in this work were purchased from the American Type Culture Collection (ATCC, Manasas, VA, USA). […] Promyelocytic leukemia HL-60 cells (CCL-240) were grown in suspension in RPM1 medium containing 1 mM sodium pyruvate and 2.0 g/L sodium bicarbonate. All media were supplemented with 10% heat-inactivated FBS, 100 IU/mL penicillin and 100 µg/mL streptomycin. Cells were grown in a humidified incubator with 5% CO2 in air at 37 °C. For the antiproliferative assay, adherent cells were plated at a density of 5 × 10^4 cells/mL and HL-60 cells at 30 × 10^4 cells/mL. Cells were seeded in 96-well plates (100 µL/well). One day after seeding, cells were treated with medium containing the compounds at concentrations ranging from 0 up to 100 µM during 3 days. The compounds were dissolved in DMSO (1% final concentration) and complete medium. Untreated cells (medium containing 1% DMSO) were used as 100% viability controls. […] Each concentration was tested in sextuplicate and experiments were repeated 2 times. Cell viability was determined by means of the MTT reduction assay at the end of the incubation with the products.

Assay [2] deals with MRC-5, AGS, SK-MES-1, J82 and HL-60 cell lines. Kind of assay: Antiproliferative assay, panel of five human cell lines (summary in words). Conditions: SK-MES-1, J82, HL-60, up to 100 µM. The assay is classed as cell-based. The protocol:
(§2) The compounds 1–20 were assessed for antiproliferative effect towards human lung fibroblasts (MRC-5) and the following human tumor cell lines: gastric adenocarcinoma (AGS), lung cancer cells (SK-MES-1), bladder carcinoma (J82) and promyelocytic leukemia (HL-60).
(§3) All human cell lines used in this work were purchased from the American Type Culture Collection (ATCC, Manasas, VA, USA). Normal lung MRC-5 fibroblasts (CCL-171), SK-MES-1 lung cancer cells (HTB-58) and J82 bladder carcinoma cells (HTB-1) were grown as monolayers in minimum essential Eagle medium (MEM) with Earles’s salts, 2 mM L-glutamine and 1.5 g/L sodium bicarbonate. Gastric adenocarcinoma AGS cells (CRL-1739) were grown as monolayers in Ham F-12 medium containing 1 mM L-glutamine and 1.5 g/L sodium bicarbonate. Promyelocytic leukemia HL-60 cells (CCL-240) were grown in suspension in RPM1 medium containing 1 mM sodium pyruvate and 2.0 g/L sodium bicarbonate. All media were supplemented with 10% heat-inactivated FBS, 100 IU/mL penicillin and 100 µg/mL streptomycin. Cells were grown in a humidified incubator with 5% CO2 in air at 37 °C. For the antiproliferative assay, adherent cells were plated at a density of 5 × 10^4 cells/mL and HL-60 cells at 30 × 10^4 cells/mL. Cells were seeded in 96-well plates (100 µL/well). One day after seeding, cells were treated with medium containing the compounds at concentrations ranging from 0 up to 100 µM during 3 days. The compounds were dissolved in DMSO (1% final concentration) and complete medium. Untreated cells (medium containing 1% DMSO) were used as 100% viability controls. […] Each concentration was tested in sextuplicate and experiments were repeated 2 times. Cell viability was determined by means of the MTT reduction assay at the end of the incubation with the products. The results were transformed to percentage of controls and the IC50 values were graphically obtained from the dose-response curves.

Assay [3] concerns AGS cells. Kind of assay: Antiproliferative assay (MTT reduction), AGS gastric adenocarcinoma cells. Format: cell-based, human. To be noted: Homo sapiens, 72 h; AGS gastric adenocarcinoma; 3 days treatment, MTT reduction; mean ± SD; >100 µM considered inactive. On the procedure:
as §2, §3
(In general: Tetrazolium dyes change colour on reduction, which living cells bring about.)

Assay [4] deals with HL-60 cells. Kind of assay: Antiproliferative assay (MTT reduction), HL-60 promyelocytic leukemia cells. The assay is classed as cell-based, human. Conditions: Homo sapiens, 72 h; HL-60 promyelocytic leukemia; 3 days treatment, MTT reduction; mean ± SD; >100 µM considered inactive. On the procedure: as §1
In assay [5] the test system is MRC-5 normal fibroblasts. Kind of assay: Antiproliferative assay (MTT reduction), MRC-5 normal lung fibroblasts. Format: cell-based, human. Conditions: Homo sapiens, MRC5, 72 h; MRC-5 normal fibroblasts; 3 days treatment, MTT reduction; mean ± SD; >100 µM considered inactive. On the procedure: as §1
Assay [6] deals with SK-MES-1 lung cancer cells. Kind of assay: Antiproliferative assay (MTT reduction), SK-MES-1 lung cancer cells. Format: cell-based, human. Conditions: Homo sapiens, 72 h; SK-MES-1 lung cancer cells; 3 days treatment, MTT reduction; mean ± SD; >100 µM considered inactive. The protocol: as §1

For `C=C1CCC2[C@](C)(CCC[C@]2(C)C(=O)O)[C@H]1CC[C@@H](C)CC(=O)O` (stereo partly drawn) [Compound 2, Labd-8(17)-en-15,19-dioic acid], the IC50 in assay [1], in assay [3], in assay [4], in assay [5] and in assay [6] was above 100 µM each time. Further, the “antiproliferative effect on the five cell lines (in words)” value (“antiproliferative effect” below) in assay [2] was “no antiproliferative effect on any of the cell lines”.

For `C=C1CCC2[C@](C)(CCC[C@]2(C)C(=O)OC)[C@H]1CC[C@@H](C)CCn1cc(CCC(=O)O)nn1` (stereo partly drawn) [Compound 6, 15-(4-(2-Carboxyethyl)-1H-1,2,3-triazol-1-yl)-imbricatolic acid methyl ester], the IC50 in assay [1], in assay [3], in assay [4], in assay [5] and in assay [6] was above 100 µM in each case. In assay [2], the “antiproliferative effect” value is reported as “no antiproliferative effect on any of the cell lines”.

For `C=C1CCC2[C@](C)(CCC[C@]2(C)C(=O)OC)[C@H]1CC[C@@H](C)CCOCC[C@H](C)CC[C@H]1C(=C)CCC2[C@]1(C)CCC[C@]2(C)C(=O)OC` (stereo partly drawn) [Compound 7], the IC50 in assay [1], in assay [3], in assay [4], in assay [5] and in assay [6] was above 100 µM in each case. Further, the “antiproliferative effect” value in assay [2] was “no antiproliferative effect”.

Regarding `C=C1CCC2[C@](C)(CCC[C@]2(C)C(=O)O)[C@H]1CC[C@@H](C)CCOC(=O)CCc1cn(CC[C@H](C)CC[C@H]2C(=C)CCC3[C@]2(C)CCC[C@]3(C)C(=O)OC)nn1` (stereo partly drawn) [Compound 19], the IC50 (commonly the concentration that gives 50% inhibition) was above 100 µM in assay [1]; above 100 µM in assay [3]; 42.4 ± 2.5 µM in assay [4]; above 100 µM in assay [5]; above 100 µM in assay [6]. The “antiproliferative effect” value in assay [2] is listed as “no antiproliferative effect on any of the cell lines, except on HL-60”.

As for `C=C1CCC2[C@](C)(CCC[C@]2(C)C(=O)OC)[C@H]1CC[C@@H](C)CCn1cc(CCC(=O)OCC[C@H](C)CC[C@H]2C(=C)CCC3[C@]2(C)CCC[C@]3(C)C(=O)OC)nn1` (stereo partly drawn) [Compound 20], the IC50 in assay [1], in assay [3], in assay [4], in assay [5] and in assay [6] was above 100 µM each time. For the same compound, the “antiproliferative effect” value in assay [2] is given as “no antiproliferative effect on any of the cell lines”.

These data come from PMC6270601, “Dimeric Labdane Diterpenes: Synthesis and Antiproliferative Effects” (Molecules, 2013).
